Assay results published in article PMC7889231 (Journal of Enzyme Inhibition and Medicinal Chemistry, 2021).
Read-outs that look alike come from different tables or passages of the source.

Legend:
[1] = tested on: MCF-7; test: MTT anti-proliferative assay, MCF-7; type: cell-based, human; settings: Homo sapiens
[2] = tested on: HepG-2, HCT-116, and MCF-7; test: MTT anti-proliferative assay, ranges stated over several cell lines; type: cell-based; settings: Homo sapiens
[3] = tested on: HCT-116; test: MTT anti-proliferative assay, HCT-116; type: cell-based, human
[4] = tested on: HepG-2; test: MTT anti-proliferative assay, HepG-2; type: cell-based, human
[5] = tested on: tubulin; test: In vitro tubulin polymerisation inhibition (turbidimetric, fluorescent plate reader); type: biochemical; settings: mean of three experiments
Experimental: The inhibition assay on microtubule polymerisation was evaluated turbidimetrically using a fluorescent plate reader.
The effect of the synthesised compounds on tubulin polymerisation was assessed turbidimetrically using a fluorescent plate reader method. The complete procedure was depected in Supplementary data.

[6] = MCF7, MTT, mean ± SD of three experiments, read-out: IC50 MCF-7
[7] = range over HepG-2, HCT-116 and MCF-7 and over the listed compounds, read-out: IC50 values ranging (all tested cell lines)
[8] = Homo sapiens, HCT-116, MTT, mean ± SD of three experiments, read-out: IC50 HCT-116
[9] = Homo sapiens, HepG2, MTT, mean ± SD of three experiments, read-out: IC50 HepG-2
[10] = MTT, mean ± SD of three experiments, read-out: IC50 HCT-116
[11] = MTT, mean ± SD of three experiments, read-out: IC50 HepG-2

COc1ccc2nc(Cl)c(/C=C/C(=O)c3ccc(Cl)cc3)cc2c1 [Compound 5, (E)-3–(2-Chloro-6-methoxyquinolin-3-yl)-1–(4-chlorophenyl)prop-2-en-1-one]
IC50 [1, 6]: 32.2 ± 2 µM | IC50 [2, 7]: 22.4 to 45.5 µM | melting point: 135 to 136 °C | IC50 [3, 8]: 28.9 ± 1.7 µM | IC50 [4, 9]: 29.2 ± 1.9 µM

COc1ccc2nc(Cl)c(-c3cc(-c4ccc(Cl)cc4)nc(=S)[nH]3)cc2c1 [Compound 26, 6–(2-Chloro-6-methoxyquinolin-3-yl)-4–(4-chlorophenyl)pyrimidine-2(1H)-thione]
IC50 [1, 6]: 5.55 ± 0.2 µM | IC50 [5]: 0.0345 µM | IC50 [2, 7]: 1.78 to 9.19 µM | melting point: 155 to 156 °C | IC50 [3, 8]: 2.24 ± 0.2 µM | IC50 [4, 9]: 3.62 ± 0.1 µM

COc1ccc2nc(Cl)c(C3CC(c4cc(OC)c(OC)c(OC)c4)=NO3)cc2c1 (centres unmarked) [Compound 13, 5–(2-Chloro-6-methoxyquinolin-3-yl)-3–(3,4,5-trimethoxyphenyl)-4,5-dihydroisoxazole]
IC50 [1, 6]: 17 ± 1.2 µM | melting point: 133 to 134 °C | IC50 [3, 8]: 12.9 µM | IC50 [3, 10]: 9.96 ± 0.3 µM | IC50 [4, 9]: 9.96 µM | IC50 [4, 11]: 12.9 ± 0.6 µM

COc1ccc2nc(Cl)c(-c3cc(-c4ccc(Cl)cc4)nc(N)n3)cc2c1 [Compound 29, 4–(2-Chloro-6-methoxyquinolin-3-yl)-6–(4-chlorophenyl)pyrimidin-2-amine]
IC50 [1, 6]: 17.6 ± 0.8 µM | IC50 [2, 7]: 10.2 to 17.6 µM | melting point: 195 to 196 °C | IC50 [3, 8]: 13 ± 0.6 µM | IC50 [4, 9]: 16.5 ± 0.8 µM

COc1ccc2nc(Cl)c(/C=C/C(=O)c3cc(OC)c(OC)c(OC)c3)cc2c1 [Compound 7, (E)-3–(2-Chloro-6-methoxyquinolin-3-yl)-1–(3,4,5-trimethoxyphenyl)prop-2-en-1-one]
IC50 [1, 6]: 16.9 ± 1.2 µM | melting point: 127 to 128 °C | IC50 [3, 8]: 25.1 ± 1.2 µM | IC50 [4, 9]: 23.6 ± 1.3 µM

COc1ccc2nc(Cl)c(-c3cc(-c4ccc(N)cc4)nc(N)n3)cc2c1 [Compound 30, 4–(4-Aminophenyl)-6–(2-chloro-6-methoxyquinolin-3-yl)pyrimidin-2-amine]
IC50 [1, 6]: 33.8 ± 1.5 µM | IC50 [2, 7]: 22.4 to 45.5 µM | melting point: 175 to 176 °C | IC50 [3, 8]: 32.7 ± 0.9 µM | IC50 [4, 9]: 28.5 ± 1.3 µM

COc1ccc2nc(Cl)c(C3CC(c4ccc(Cl)cc4)=NO3)cc2c1 (centres unmarked) [Compound 11, 5–(2-Chloro-6-methoxyquinolin-3-yl)-3–(4-chlorophenyl)-4,5-dihydroisoxazole]
IC50 [1, 6]: 22.8 ± 1.4 µM | melting point: 145 to 146 °C | IC50 [3, 8]: 19.7 ± 1.3 µM | IC50 [4, 9]: 20.5 ± 1 µM

COc1ccc2nc(Cl)c(C3CC(c4ccc(Cl)cc4)=NN3)cc2c1 (centres unmarked) [Compound 8, 2-Chloro-3-[3–(4-chlorophenyl)-4,5-dihydro-1H-pyrazol-5-yl]-6-methoxyquinoline]
IC50 [1, 6]: 33.5 ± 2.4 µM | IC50 [2, 7]: 22.4 to 45.5 µM | melting point: 118 to 119 °C | IC50 [3, 8]: 22.4 ± 1.1 µM | IC50 [4, 9]: 30.9 ± 1.2 µM

COc1ccc2nc(Cl)c(-c3cc(-c4cc(OC)c(OC)c(OC)c4)nc(=O)[nH]3)cc2c1 [Compound 34, 6–(2-Chloro-6-methoxyquinolin-3-yl)-4–(3,4,5-trimethoxyphenyl)pyrimidin-2(1H)-one]
IC50 [1, 6]: 15.4 ± 0.8 µM | IC50 [2, 7]: 10.2 to 17.6 µM | melting point: 176 to 177 °C | IC50 [3, 8]: 11.9 ± 0.4 µM | IC50 [4, 9]: 15.3 ± 0.4 µM

COc1ccc2nc(Cl)c(/C=C/C(=O)c3ccc(N)cc3)cc2c1 [Compound 6, (E)-1–(4-Aminophenyl)-3–(2-chloro-6-methoxyquinolin-3-yl)prop-2-en-1-one]
IC50 [1, 6]: 37.3 ± 2.1 µM | IC50 [2, 7]: 22.4 to 45.5 µM | melting point: 120 to 121 °C | IC50 [3, 8]: 28.6 ± 1.7 µM | IC50 [4, 9]: 32.9 ± 2.1 µM

COc1ccc2nc(Cl)c(C3CC(c4cc(OC)c(OC)c(OC)c4)=NN3C(N)=S)cc2c1 (centres unmarked) [Compound 16, 5–(2-Chloro-6-methoxyquinolin-3-yl)-3–(3,4,5-trimethoxyphenyl)-4,5-dihydro-1H-pyrazole-1-carbothioamide]
IC50 [1, 6]: 13.9 ± 0.3 µM | melting point: 121 to 122 °C | IC50 [3, 8]: 9.3 µM | IC50 [3, 10]: 8.87 ± 0.3 µM | IC50 [4, 9]: 8.87 µM | IC50 [4, 11]: 9.3 ± 0.3 µM

COc1ccc2nc(Cl)c(-c3cc(-c4ccc(N)cc4)nc(=S)[nH]3)cc2c1 [Compound 27, 4–(4-Aminophenyl)-6–(2-chloro-6-methoxyquinolin-3-yl)pyrimidine-2(1H)-thione]
IC50 [1, 6]: 24.3 ± 0.9 µM | melting point: 146 to 147 °C | IC50 [3, 8]: 22.4 ± 0.5 µM | IC50 [4, 9]: 16.3 ± 0.4 µM

COc1ccc2nc(Cl)c(C3CC(c4cc(OC)c(OC)c(OC)c4)=NN3C(N)=O)cc2c1 (centres unmarked) [Compound 19, 5–(2-Chloro-6-methoxyquinolin-3-yl)-3–(3,4,5-trimethoxyphenyl)-4,5-dihydro-1H-pyrazole-1-carboxamide]
IC50 [1, 6]: 9.04 ± 0.5 µM | IC50 ([2]; range over HCT-116 and MCF-7 and over the listed compounds, read-out: IC50 values ranging (HCT-116 and MCF-7)): 6.48 to 10.3 µM | melting point: 117 to 118 °C | IC50 [3, 8]: 7.38 ± 0.4 µM | IC50 [4, 9]: 10.9 ± 0.5 µM

COc1ccc2nc(Cl)c(C3CC(c4ccc(N)cc4)=NN3C(N)=O)cc2c1 (centres unmarked) [Compound 18, 3–(4-Aminophenyl)-5–(2-chloro-6-methoxyquinolin-3-yl)-4,5-dihydro-1H-pyrazole-1-carboxamide]
IC50 [1, 6]: 13.7 ± 0.8 µM | IC50 [2, 7]: 10.2 to 17.6 µM | melting point: 130 to 131 °C | IC50 [3, 8]: 10.4 ± 0.3 µM | IC50 [4, 9]: 10.2 ± 0.4 µM

COc1ccc2nc(Cl)c(C3CC(c4ccc(Cl)cc4)=NN3c3ccc([N+](=O)[O-])cc3[N+](=O)[O-])cc2c1 (centres unmarked) [Compound 23, 2-Chloro-3-[3–(4-chlorophenyl)-1–(2,4-dinitrophenyl)-4,5-dihydro-1H-pyrazol-5-yl]-6-methoxyquinoline]
IC50 ([1]; MCF7, read-out: IC50 MCF-7): 4.48 ± 0.1 µM | IC50 ([2]; read-out: IC50 values ranging (all tested cell lines)): 1.78 to 9.19 µM | melting point: 143 to 144 °C | IC50 ([3]; Homo sapiens, HCT-116, read-out: IC50 HCT-116): 1.78 ± 0.1 µM | IC50 ([4]; Homo sapiens, HepG2, read-out: IC50 HepG-2): 2.64 ± 0.1 µM

COc1ccc2nc(Cl)c(-c3cc(-c4cc(OC)c(OC)c(OC)c4)nc(N)n3)cc2c1 [Compound 31, 4–(2-Chloro-6-methoxyquinolin-3-yl)-6–(3,4,5-trimethoxyphenyl)pyrimidin-2-amine]
IC50 [1, 6]: 15.2 ± 0.7 µM | melting point: 162 to 163 °C | IC50 [3, 8]: 10.5 ± 0.4 µM | IC50 [4, 9]: 9.45 ± 0.5 µM

COc1ccc2nc(Cl)c(C3CC(c4ccc(N)cc4)=NN3C(N)=S)cc2c1 (centres unmarked) [Compound 15, 3–(4-Aminophenyl)-5–(2-chloro-6-methoxyquinolin-3-yl)-4,5-dihydro-1H-pyrazole-1-carbothioamide]
IC50 [1, 6]: 13.6 ± 0.7 µM | IC50 [2, 7]: 10.2 to 17.6 µM | melting point: 123 to 124 °C | IC50 [3, 8]: 11.6 ± 0.9 µM | IC50 [4, 9]: 10.2 ± 0.4 µM

COc1ccc2nc(Cl)c(C3CC(c4ccc(Cl)cc4)=NN3C(N)=O)cc2c1 (centres unmarked) [Compound 17, 5–(2-Chloro-6-methoxyquinolin-3-yl)-3–(4-chlorophenyl)-4,5-dihydro-1H-pyrazole-1-carboxamide]
IC50 [1, 6]: 15.9 ± 0.6 µM | IC50 [2, 7]: 10.2 to 17.6 µM | melting point: 135 to 136 °C | IC50 [3, 8]: 11.4 ± 0.4 µM | IC50 [4, 9]: 12.7 ± 0.5 µM

COc1ccc2nc(Cl)c(C3CC(c4ccc(N)cc4)=NN3)cc2c1 (centres unmarked) [Compound 9, 4-[5–(2-Chloro-6-methoxyquinolin-3-yl)-4,5-dihydro-1H-pyrazol-3-yl]aniline]
IC50 [1, 6]: 20.5 ± 1.1 µM | melting point: 122 to 123 °C | IC50 [3, 8]: 16.6 µM | IC50 [3, 10]: 17.4 ± 1 µM | IC50 [4, 9]: 17.4 µM | IC50 [4, 11]: 16.6 ± 0.8 µM

COc1ccc2nc(Cl)c(C3CC(c4ccc(N)cc4)=NO3)cc2c1 (centres unmarked) [Compound 12, 4-[5–(2-Chloro-6-methoxyquinolin-3-yl)-4,5-dihydroisoxazol-3-yl]aniline]
IC50 [1, 6]: 45.5 ± 2.8 µM | IC50 [2, 7]: 22.4 to 45.5 µM | melting point: 127 to 128 °C | IC50 [3, 8]: 40.5 ± 2.4 µM | IC50 [4, 9]: 35.4 ± 1.8 µM

COc1ccc2nc(Cl)c(C3CC(c4cc(OC)c(OC)c(OC)c4)=NN3)cc2c1 (centres unmarked) [Compound 10, 2-Chloro-6-methoxy-3-[3–(3,4,5-trimethoxyphenyl)-4,5-dihydro-1H-pyrazol-5-yl]quinoline]
IC50 [1, 6]: 25.1 ± 1.2 µM | melting point: 114 to 115 °C | IC50 [3, 8]: 15.4 µM | IC50 [3, 10]: 17.4 ± 1.1 µM | IC50 [4, 9]: 17.4 µM | IC50 [4, 11]: 15.4 ± 0.9 µM
